{"source": "paper PMC9268516", "about": "(Molecules, 2022)", "key": {"H1N1": {"system": "H1N1", "details": "cited from earlier work"}, "chemokine co-receptor 5": {"system": "chemokine co-receptor 5", "details": "cited from earlier work"}, "in vitro": {"experiment": "in vitro", "details": "Rhesus monkey"}, "RAW 264.7 cells": {"system": "RAW 264.7 cells", "details": "cited from earlier work"}, "influenza A/WSN/33 virus": {"system": "influenza A/WSN/33 virus", "details": "cited from earlier work"}}, "data": [{"smiles": "CC(C)/C=c1\\[nH]c(=O)/c(=C/c2ccc(O)cc2)[nH]c1=O", "note": "[(3Z,6Z)-3-(4-hydroxybenzylidene)-6-isobutylidenepiperazine-2,5-dione, reference compound]", "values": [{"measurement": "IC50", "setting": "H1N1", "value": "6.8 ± 1.5", "unit": "µM"}]}, {"smiles": "CCCCN1C(=O)[C@@H]([C@H](O)C2CCCCC2)NC(=O)C12CCN(Cc1ccc(Oc3ccc(C(=O)O)cc3)cc1)CC2", "note": "[Aplaviroc]", "values": [{"measurement": "binding affinity to chemokine co-receptor 5", "setting": "chemokine co-receptor 5", "value": "high binding affinity"}]}, {"smiles": "C=CCn1c(=O)/c(=C/C(C)C)[nH]c(=O)/c1=C/c1ccccc1", "note": "[Compound 13b, (3Z,6Z)-4-Allyl-3-benzylidene-6-(2-methylpropylidene)-2,5-diketopiperazine]", "values": [{"measurement": "IC50", "setting": "in vitro", "value": "> 128", "unit": "µg/mL"}]}, {"smiles": "CC(C)=CCn1c(=O)/c(=C/C(C)C)[nH]c(=O)/c1=C/c1ccccc1", "note": "[Compound 13c, (3Z,6Z)-3-Benzylidene-6-(2-methylpropylidene)-4-(3-methylbut-2-en-1-yl)-2,5-diketopiperazine]", "values": [{"measurement": "melting point", "value": "175 to 178", "unit": "°C"}, {"measurement": "IC50", "setting": "in vitro", "value": "> 128", "unit": "µg/mL"}]}, {"smiles": "CC(C)/C=c1/c(=O)[nH]/c(=C\\c2ccccc2)c(=O)n1C", "note": "[Compound 13d, (3Z,6Z)-3-Benzylidene-6-(2-methylpropylidene)-1-methyl-2,5-diketopiperazine]", "values": [{"measurement": "IC50", "setting": "in vitro", "value": "> 128", "unit": "µg/mL"}]}, {"smiles": "C=CCn1c(=O)/c(=C/c2ccccc2)[nH]c(=O)/c1=C/C(C)C", "note": "[Compound 13e, (3Z,6Z)-1-Allyl-3-benzylidene-6-(2-methylpropylidene)-2,5-diketopiperazine]", "values": [{"measurement": "melting point", "value": "115 to 119", "unit": "°C"}]}, {"smiles": "CC(C)/C=c1\\[nH]c(=O)/c(=C/c2ccccc2)[nH]c1=O", "note": "[Compound 13f, (3Z,6Z)-3-Benzylidene-6-(2-methylpropylidene)-2,5-diketopiperazine]", "values": [{"measurement": "melting point", "value": "243 to 246", "unit": "°C"}, {"measurement": "IC50", "setting": "H1N1", "value": "41.5 ± 4.5", "unit": "µM"}]}, {"smiles": "CC(C)C=c1c(=O)[nH]c(=Cc2ccccc2)c(=O)n1CCN1CCCC1", "note": "[Compound 14c, (3Z,6E)-3-Benzylidene-6-(2-methylpropylidene)-1-(1-ethylpyrrolidine)-2,5-diketopiperazine]", "values": [{"measurement": "melting point", "value": "158 to 162", "unit": "°C"}, {"measurement": "IC50", "setting": "in vitro", "value": "> 128", "unit": "µg/mL"}]}, {"smiles": "CC(C)/C=c1\\c(=O)n(O)/c(=C/c2ccccc2)c(=O)n1C", "note": "[LS-C, reference compound]", "values": [{"measurement": "anti-inflammatory effect", "setting": "RAW 264.7 cells", "value": "anti-inflammatory effect"}, {"measurement": "IC50", "setting": "in vitro", "value": "> 128", "unit": "µg/mL"}]}, {"smiles": "CC(C)/C=c1\\c(=O)[nH]/c(=C/c2ccccc2)c(=O)n1C", "note": "[LS-D, reference compound]", "values": [{"measurement": "anti-inflammatory effect", "setting": "RAW 264.7 cells", "value": "anti-inflammatory effect"}, {"measurement": "IC50", "setting": "in vitro", "value": "> 128", "unit": "µg/mL"}]}, {"smiles": "C=CC(C)(C)c1[nH]c2ccccc2c1/C=c1\\[nH]c(=O)c(=C)[nH]c1=O", "note": "[Neoechinulin B]", "values": [{"measurement": "inhibitory rate", "setting": "influenza A/WSN/33 virus", "value": 70.48, "unit": "%"}]}]}
